Reference: ChEMBL document CHEMBL1128144, “Cyclic sulfone-3-carboxamides as novel P2-ligands for Ro 31-8959 based HIV-1 protease inhibitors” (Bioorg Med Chem Lett, 1995)

Key:
[1] = target: Human immunodeficiency virus type 1 protease (Human immunodeficiency virus 1, UniProt Q72874); assay: Inhibition of HIV-1 Protease
MT4 = assay: Inhibitory activity against HIV-1 in MT-4 lymphoid cells infected with IIIb; format: functional; conditions: Homo sapiens, read-out: CIC95

Structure (SMILES)	IC50 [1] [nM]	IC95 (MT4) [nM]
CC(C)(C)NC(=O)[C@@H]1C[C@@H]2CCCC[C@@H]2CN1C[C@@H](O)[C@H](Cc1ccccc1)NC(=O)[C@@H]1CCCSC1	78.4	–
CC(C)(C)NC(=O)[C@@H]1C[C@@H]2CCCC[C@@H]2CN1C[C@@H](O)[C@H](Cc1ccccc1)NC(=O)[C@H]1CCCSC1	98.8	–
CC(C)(C)NC(=O)[C@@H]1C[C@@H]2CCCC[C@@H]2CN1C[C@@H](O)[C@H](Cc1ccccc1)NC(=O)[C@@H]1CCS(=O)(=O)C1	200	–
CC(C)(C)NC(=O)[C@@H]1C[C@@H]2CCCC[C@@H]2CN1C[C@@H](O)[C@H](Cc1ccccc1)NC(=O)[C@@H]1CCSC1	342	–
CC(C)(C)NC(=O)[C@@H]1C[C@@H]2CCCC[C@@H]2CN1C[C@@H](O)[C@H](Cc1ccccc1)NC(=O)C1=CCCSC1	167	–
CC(C)(C)NC(=O)[C@@H]1C[C@@H]2CCCC[C@@H]2CN1C[C@@H](O)[C@H](Cc1ccccc1)NC(=O)[C@H]1CCS(=O)(=O)C1	193	–
CC(C)(C)NC(=O)[C@@H]1C[C@@H]2CCCC[C@@H]2CN1C[C@@H](O)[C@H](Cc1ccccc1)NC(=O)C1=CCCS(=O)(=O)C1	54.7	–
CC(C)(C)NC(=O)[C@@H]1C[C@@H]2CCCC[C@@H]2CN1C[C@@H](O)[C@H](Cc1ccccc1)NC(=O)[C@H]1CCSC1	650	–
CC(C)(C)NC(=O)[C@@H]1C[C@@H]2CCCC[C@@H]2CN1C[C@@H](O)[C@H](Cc1ccccc1)NC(=O)[C@@H]1CCCS(=O)(=O)C1	9.2	200
CC(C)(C)NC(=O)[C@@H]1C[C@@H]2CCCC[C@@H]2CN1C[C@@H](O)[C@H](Cc1ccccc1)NC(=O)[C@H]1CCCS(=O)(=O)C1	23.5	400
